{"source": "patent US20040009485A1", "about": "“Cellular arrays for the identification of altered gene expression” (priority 2002, published 2004)", "key": {"[1]": {"system": "LuxArray 1.0 luxCDABE gene fusions", "assay": "LuxArray 1.0 solid phase identification of nalidixic acid responsive gene fusions", "type": "cell-based, E. coli", "details": "5 μg/ml, duplicate spots; for Solid expt NA/LB, t = 2 hr / Solid expt NA/LB, t = 4 hr / Solid expt NA/LB, t = 6 hr / Solid expt NA/LB, t = 8 hr: normalized; for upregulation on LuxArray 1.0: 4 hours of nalidixic acid treatment", "from_the_text": "The genome-registered Lux-A luxCDABE gene fusion collection. (described in Example 1) provided a list of 4988 plasmid-borne gene fusions, each with boundary information relative to the E. coli genome and the orientation relative to the lux operon. An operably linked or a functional construct was defined as one consisting of a genomic fragment encompassing a promoter adjacent to the promoterless lux operon in an orientation that causes transcription initiated at the promoter to proceed into and through the lux operon. Therefore, to identify the functional subset of the collection, criteria were computationally applied to filter the list of clones first for functionality and second for redundancy. A list of definitions of documented and predicted operons (Thieffry et al. (1998) Bioinformatics 14:391-400) was used to define genomic coordinates of the operons as the translational start codon position of the first open reading frame (ORF) in the operon and the translational stop codon position of the last ORF in the operon. Additional information included the strand on which the operon is coded (direction of transcription), and gene names (common or “b” number). The lux gene fusions were filtered computationally using the following assumptions; (i) a functional transcriptional fusion would result from any genomic fragment starting greater than 50 base pairs upstream of the start codon of the first ORF and ending anywhere between the start codon of the first ORF in the operon and the stop codon of the last ORF in the operon, thereby eliminating the occurrence of a transcriptional stop signal in the construct between the promoter and the lux operon; and (ii) the promoter contained in the genomic fragment must face in the correct orientation relative to the lux operon (pictorially represented in FIG. 6). Finally, in cases when more then one clone fit the criteria for a single operon, only the one construct containing the genomic fragment representing the greatest amount of upstream sequence was retained thereby eliminating redundancy. The PERL code used and the resulting list of 689 selected gene fusions are found in Scheme 1 and Table 18 (following Example 7). These fusions represent 27% of the 2584 known and predicted transcriptional units in the E. coli genome. Individual cultures of strains containing the identified gene fusions were rearranged from the ninety original culture plates to create a set of sixteen 96-well microplates containing all the identified fusions, duplicated with side by side symmetry, including appropriately placed controls. These 16 plates represent were used to generate the cellular arrays for use in subsequent analyses.\nThe E. coli strains were grown overnight at 37° C. in […]) LB medium supplemented with 100 μg/ml ampicillin in a set of sixteen 96-well dishes. These cultures were designated “printing plates” and were used as the cell source to manufacture the arrays. Porous membranes (Biodyne B, Nunc) were sterilized with UV illumination for 10 min then placed in contact with pre-warmed of solid LB growth media in a culture dish (OmniTray, Nunc). Printing of 4×4 subarrays was accomplished using a BioMek 2000 (Beckman Coulter) equipped with a High Density Replication Tool (HDRT). […] After sterilization, the pins are air-dried prior to the next transfer. The E. coli strains in the LuxArray were printed onto an approximately 8×12 cm membrane in two sets of triplicates.\nArrays were printed from fresh overnight cultures onto membranes on plates containing LB media. Alter 6 hr of growth at 37° C. membranes were moved to pre-warmed plates containing either LB media or LB media supplemented with 5 μg/ml nalidixic acid then replaced at 37° C. to continue growing. Images were collected for each array every two hours from 0-8 hr after relocation using a cooled CCD camera (FluorChem 8000: f0.85 lens, 2 min exposure, AlphaInnotech). […]"}, "[2]": {"system": "luxCDABE gene fusions in lexA+ host", "assay": "Mitomycin C and nalidixic acid responses in lexA+ host", "type": "cell-based, E. coli", "details": "for NA Ratio, 2 hr 10 ug/ml: lexA+ host", "experimental": "In addition, the effect of a lexAind mutation was tested to determine if any of these were part of the SOS regulon. The expectation is that SOS regulon member will be induced by both nalidixic acid and mitomycin C in a manner that is dependent on lexA function (Walker, G. C., (1996) Escherichia coli and Salmonella: Cellular and Molecular Biology ASM Press). […] This is consistent with the observation of upregulation of the b1728 mRNA transcript upon mitomycin C treatment in a LexA dependent fashion (Fernández de Henestrosa et al. (2000). Mol. Microbiol. 35:1560-1572). Likewise, two Gene fusions, those to oraA and yigN were identified is new members of the SOS regulon (Table 16). […] Negative, non-DNA damage responsive gene fusions were also included (Table 16)."}, "[3]": {"details": "1pxA 1pxB rnhB dnaE fusion (lux-a.pk061.c3), listed as NA"}, "[4]": {"details": "b1728 fusion (lux-a.pk033.c5), listed as NA"}, "[5]": {"details": "b1936 fusion (lux-a.pk0019.g1), listed as NA"}, "[6]": {"details": "dinG ybiB fusion (lux-a.pk0024.f5), listed as NA"}, "[7]": {"details": "dinP fusion (lux-a.pk055.a3), listed as NA"}, "[8]": {"details": "fusion (lux-a.pk0015.d6), listed as NA"}, "[9]": {"details": "oraA fusion (lux-a.pk058.f5), listed as NA"}, "[10]": {"details": "uvrA fusion (lux-a.pk0001.b6), listed as NA"}, "[11]": {"details": "yaaF fusion (lux-a.pk031.e7), listed as NA"}, "[12]": {"details": "yfhJ fdx hscA yfhE fusion (lux-a.pk0019.g2), listed as NA"}}, "note": "Values joined by “and” are separate entries in the source; they are usually repeats but may differ in a detail not shown here. Identical values can stand only once."}
{"compound": "CCn1cc(C(=O)O)c(=O)c2ccc(C)nc21", "note": "[Nalidixic acid, nalidixic acid]", "values": [{"measurement": "Solid expt NA/LB, t = 2 hr", "setting": "[1]; [3]", "value": "3.5 and 2.7"}, {"measurement": "Solid expt NA/LB, t = 4 hr", "setting": "[1]; [3]", "value": "3.1 and 3.5"}, {"measurement": "Solid expt NA/LB, t = 6 hr", "setting": "[1]; [3]", "value": "2.8 and 3.0"}, {"measurement": "Solid expt NA/LB, t = 8 hr", "setting": "[1]; [3]", "value": "1.7 and 1.9"}, {"measurement": "Solid expt NA/LB, t = 2 hr", "setting": "[1]; [4]", "value": "3.7 and 2.1"}, {"measurement": "Solid expt NA/LB, t = 4 hr", "setting": "[1]; [4]", "value": "4.3 and 3.1"}, {"measurement": "Solid expt NA/LB, t = 6 hr", "setting": "[1]; [4]", "value": "3.2 and 3.3"}, {"measurement": "Solid expt NA/LB, t = 8 hr", "setting": "[1]; [4]", "value": "2.6 and 2.5"}, {"measurement": "Solid expt NA/LB, t = 2 hr", "setting": "[1]; [5]", "value": "2.5 and 4.4"}, {"measurement": "Solid expt NA/LB, t = 4 hr", "setting": "[1]; [5]", "value": "7.7 and 8.2"}, {"measurement": "Solid expt NA/LB, t = 6 hr", "setting": "[1]; [5]", "value": "9.7 and 15.5"}, {"measurement": "Solid expt NA/LB, t = 8 hr", "setting": "[1]; [5]", "value": "7.1 and 10.2"}, {"measurement": "Solid expt NA/LB, t = 2 hr", "setting": "[1]; [6]", "value": "2.5 and 3.4"}, {"measurement": "Solid expt NA/LB, t = 4 hr", "setting": "[1]; [6]", "value": "3.7 and 4.2"}, {"measurement": "Solid expt NA/LB, t = 6 hr", "setting": "[1]; [6]", "value": "3.5 and 3.1"}, {"measurement": "Solid expt NA/LB, t = 8 hr", "setting": "[1]; [6]", "value": "2.9 and 2.6"}, {"measurement": "Solid expt NA/LB, t = 2 hr", "setting": "[1]; [7]", "value": "3.1 and 5.5"}, {"measurement": "Solid expt NA/LB, t = 6 hr", "setting": "[1]; [7]", "value": "4.2 and 8.1"}, {"measurement": "Solid expt NA/LB, t = 4 hr", "setting": "[1]; frvR frvX frvB frvA fusion (lux-a.pk046.e6)", "value": 2.3}, {"measurement": "Solid expt NA/LB, t = 2 hr", "setting": "[1]; frvR frvX frvB frvA fusion (lux-a.pk046.e6), listed as NA", "value": "2.8 and 2.1"}, {"measurement": "Solid expt NA/LB, t = 2 hr", "setting": "[1]; [8]", "value": "2.3 and 2.2"}, {"measurement": "Solid expt NA/LB, t = 4 hr", "setting": "[1]; [8]", "value": "6.4 and 4.1"}, {"measurement": "Solid expt NA/LB, t = 6 hr", "setting": "[1]; [8]", "value": "2.7 and 1.9"}, {"measurement": "Solid expt NA/LB, t = 8 hr", "setting": "[1]; [8]", "value": "0.6 and 0.8"}, {"measurement": "Solid expt NA/LB, t = 2 hr", "setting": "[1]; [9]", "value": "5.1 and 4.7"}, {"measurement": "Solid expt NA/LB, t = 4 hr", "setting": "[1]; [9]", "value": "7.9 and 7.7"}, {"measurement": "Solid expt NA/LB, t = 6 hr", "setting": "[1]; [9]", "value": "5.9 and 5.6"}, {"measurement": "Solid expt NA/LB, t = 8 hr", "setting": "[1]; [9]", "value": "3.9 and 3.8"}, {"measurement": "upregulation on LuxArray 1.0", "setting": "[1]; ruvA fusion", "value": "1.7 fold and 2.1 fold"}, {"measurement": "Solid expt NA/LB, t = 2 hr", "setting": "[1]; [10]", "value": "2.5 and 2.9"}, {"measurement": "Solid expt NA/LB, t = 4 hr", "setting": "[1]; [10]", "value": "2.3 and 2.4"}, {"measurement": "Solid expt NA/LB, t = 6 hr", "setting": "[1]; [10]", "value": "1.6 and 1.1"}, {"measurement": "Solid expt NA/LB, t = 8 hr", "setting": "[1]; [10]", "value": "1.0 and 0.6"}, {"measurement": "upregulation on LuxArray 1.0", "setting": "[1]; uvrD fusion", "value": "1.6 fold and 1.9 fold"}, {"measurement": "Solid expt NA/LB, t = 2 hr", "setting": "[1]; [11]", "value": "2.1 and 2.0"}, {"measurement": "Solid expt NA/LB, t = 4 hr", "setting": "[1]; [11]", "value": "2.0 and 2.1"}, {"measurement": "Solid expt NA/LB, t = 6 hr", "setting": "[1]; [11]", "value": "1.3 and 1.8"}, {"measurement": "Solid expt NA/LB, t = 8 hr", "setting": "[1]; [11]", "value": "1.0 and 1.5"}, {"measurement": "Solid expt NA/LB, t = 2 hr", "setting": "[1]; yfhJ fdx hscA yfhE fusion (lux-a.pk0019.g2)", "value": 2.1}, {"measurement": "Solid expt NA/LB, t = 4 hr", "setting": "[1]; [12]", "value": "2.0 and 2.2"}, {"measurement": "Solid expt NA/LB, t = 6 hr", "setting": "[1]; [12]", "value": "1.7 and 1.5"}, {"measurement": "Solid expt NA/LB, t = 8 hr", "setting": "[1]; [12]", "value": "1.4 and 1.3"}, {"measurement": "Solid expt NA/LB, t = 4 hr", "setting": "[1]; yigN fusion (lux-a.pk046.f11), listed as NA", "value": "2.5 and 4.3"}, {"measurement": "NA Ratio, 2 hr 10 ug/ml", "setting": "[2]; 1pxA 1pxB rnhB dnaE fusion (lux-a.pk061.c3)", "value": 2.87}, {"measurement": "NA Ratio, 2 hr 10 ug/ml", "setting": "[2]; b1728 fusion (lux-a.pk033.c5)", "value": 5.17}, {"measurement": "NA Ratio, 2 hr 10 ug/ml", "setting": "[2]; b1936 fusion (lux-a.pk0019.g1)", "value": 3.25}, {"measurement": "NA Ratio, 2 hr 10 ug/ml", "setting": "[2]; dinG ybiB fusion (lux-a.pk0024.f5)", "value": 4.03}, {"measurement": "NA Ratio, 2 hr 10 ug/ml", "setting": "[2]; fusion (lux-a.pk0015.d6)", "value": 3.22}, {"measurement": "NA Ratio, 2 hr 10 ug/ml", "setting": "[2]; lacZ fusion (65.d4), negative control", "value": 0.81}, {"measurement": "induction of b1728 promoter-luxCDABE fusion", "setting": "[2]; lexA+ host (FIG. 9)", "value": "clearly induced"}, {"measurement": "NA Ratio, 2 hr 10 ug/ml", "setting": "[2]; oraA fusion (lux-a.pk058.f5)", "value": 11.06}, {"measurement": "NA Ratio, 2 hr 10 ug/ml", "setting": "[2]; yaaF fusion (lux-a.pk031.e7)", "value": 1.53}, {"measurement": "NA Ratio, 2 hr 10 ug/ml", "setting": "[2]; yciG fusion (lux-a.pk006.b4), negative control", "value": 0.32}, {"measurement": "NA Ratio, 2 hr 10 ug/ml", "setting": "[2]; yigN fusion (lux-a.pk046.f11)", "value": 5.74}]}
